Data taken from patent publication US8637536B2, “Pyrimidinone compounds for use in the treatment of diseases or conditions mediated by Lp-PLA2” (Glaxo Group Limited, priority 2010, dated 2014).
Like-named read-outs stand apart in the source and are kept apart here.

Experiments:
[1] = molecular target: T1, recombinant human Lp-PLA2 (Homo sapiens, UniProt Q13093); test: Recombinant human Lp-PLA2 assay (rhLp-PLA2, PED6 assay); type: biochemical
T1 sequence (Q13093 22-441): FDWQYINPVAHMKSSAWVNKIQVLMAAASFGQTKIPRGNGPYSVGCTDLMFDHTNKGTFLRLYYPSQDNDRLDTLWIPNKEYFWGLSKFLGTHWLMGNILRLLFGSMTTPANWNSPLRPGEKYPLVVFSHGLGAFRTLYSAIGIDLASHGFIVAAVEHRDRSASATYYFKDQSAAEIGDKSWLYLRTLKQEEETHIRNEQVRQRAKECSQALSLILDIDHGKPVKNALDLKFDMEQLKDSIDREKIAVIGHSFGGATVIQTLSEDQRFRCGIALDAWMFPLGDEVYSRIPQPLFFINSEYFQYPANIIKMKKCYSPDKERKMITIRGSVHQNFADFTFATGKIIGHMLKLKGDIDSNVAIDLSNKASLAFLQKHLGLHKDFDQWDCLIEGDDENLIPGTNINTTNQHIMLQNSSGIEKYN
From the text: (1) Recombinant Human Lp-PLA2 Assay (rhLp-PLA2) (Also Referred to as “PED6” Assay)
N-((6-(2,4-dinitrophenyl)amino)-hexanoyl)-2-(4,4-difluoro-5,7-dimethyl-4-bora-3a,4a-diaza-s-indacene-3-pentanoyl)-1-hexadecanoyl-sn-glycero-3-phosphoethanolamine, triethylammonium salt (PED6) is a commercially available fluorescently-labelled phospholipid, which is commercially available from Molecular Probes. There is a quenching […] position and a Bodipy fluorescein (FL) group in the sn2 position.
The PED6 assay was run as an unquenched 10 μL assay. Compounds source plate was prepared by making 1:3 (by volume) serial dilution of the compounds into pure DMSO on 384-well microplate. […] 5 μL of recombinant human Lp-PLA2 enzyme (2 nM rhLp-PLA2 in assay buffer of 50 mM HEPES, pH7.4, 150 mM NaCl, 1 mM CHAPS) was added to each well of the plate with compounds. Plates were centrifuged for 10 sec at 500 rpm. […] Plates were centrifuged for 10 sec at 500 rpm. Plate was covered to protect from light and incubated for 20 min at room temperature. […] PIC50 data, curve and QC analysis was conducted by using XL fit module in Excel.

[2] = molecular target: T2, Lp-PLA2 from plasma (pooled human plasma) (Homo sapiens, UniProt Q13093); test: Lp-PLA2 human plasma assay (Thio-PAF assay); type: biochemical; details: text thresholds, read-out: pIC50 values in the thio-PAF assay (converted)
T2 construct: 8 μL pooled human plasma; from tissue; host or cells: pooled human plasma
T2 sequence (Q13093 22-441): T1 sequence (Q13093 22-441)
From the text: (3) Lipoprotein-Associated Phospholipase A2 (Lp-PLA2) Human Plasma Assay (Also Referred to as “Thio-PAF Assay”)
The human plasma assay utilizes a thioester analog of PAF (phosphatidylcholine), where hydrolysis yields to the formation of a phospholipid containing a free thiol group. The amount of thiol is quantitated continuously by reacting with CPM (7-diethylamino-3-(4′-maleimidylphenyl)-4-methylcoumarin), a maleimide which increases in fluoresence after Michael addition of thiols. This assay may detect the activity of Lp-PLA2 from plasma, as determined by specific inhibition by Lp-PLA2 inhibitors.
The thio-PAF assay was run as a quenched 15 μL assay. Compounds source plate was prepared by making 1:3 (by volume) serial dilution of the compounds into pure DMSO on 384-well microplate. 0.01 μL of compounds on compound source plate were transferred to 384 well Greiner 784076 (black) low-volume plates by ECHO liquid dispenser. 8 μL pooled human plasma, which was previously aliquoted and frozen, was added. Plates were centrifuged for 10 sec at 500 rpm. After 30 minutes preincubation, 2 μL of substrate (2.5 mM thio-PAF, 3.2 mM NEM (N-ethylmaleimide) [made fresh daily in DMSO], and 32 μM CPM [from a DMSO stock] in assay buffer of 50 mM HEPES, pH7.4, 150 mM NaCl, 1 mM CHAPS was added to 384 well Greiner 784076 (black) low-volume plates by BRAVO liquid handling station. Plates were centrifuged for 10 sec at 500 rpm. Plate was covered to protect from light and incubated for 2 min at room temperature. Reaction was quenched with 5 μL of 5% aqueous trifluoroacetic acid (TFA). Plates were covered to protect from light and incubated for 40 min at room temperature. Plates were read at ex: 380/em: 485 using-Envision microplate reader. PIC50 data, curve and QC analysis was conducted by using XLFit module in Excel.

[3] = text thresholds, upper limit for pIC50 in this assay is 9.3, read-out: pIC50 values in the PED6 assay (converted)
[4] = upper limit for pIC50 obtained in this PED6 assay is 9.3, read-out: rhLp-PLA2 (PED6 assay) (pIC50) (converted)

IC50 [1, 3] | IC50 [2] | IC50 [1, 4] | SMILES
≤ 1 nM | ≤ 100 nM |  | COc1ncc(Cc2c[nH]c(OCCc3ccc(Oc4ccc(Cl)c(C(F)(F)F)c4)c(F)c3)nc2=O)cn1 [E172, 2-{[2-(4-{[4-chloro-3-(trifluoromethyl)phenyl]oxy}-3-fluorophenyl)ethyl]oxy}-5-{[2-(methyloxy)-5-pyrimidinyl]methyl}-4(1H)-pyrimidinone]
≤ 10 nM | ≤ 100 nM |  | O=c1nc(NCCc2ccc(Oc3ccc(Cl)c(C(F)(F)F)c3)cc2)[nH]cc1Cc1ccnnc1 [E214, 2-{2-[4-(4-chloro-3-trifluoromethyl-phenoxy)-phenyl]ethylamino}-5-pyridazin-4-ylmethyl-1H-pyrimidin-4-one]
≤ 10 nM | ≤ 1000 nM |  | CN(CCc1ccc(Oc2ccc(Cl)c(C(F)(F)F)c2)cc1)c1nc(=O)c(Cc2cncnc2)cn1C [E196, 2-({2-[4-(4-Chloro-3-trifluoromethyl-phenoxy)-phenyl]-ethyl}-methyl-amino)-1-methyl-5-pyrimidin-5-ylmethyl-1H-pyrimidin-4-one]
≤ 1 nM | ≤ 100 nM |  | COc1ncc(Cc2c[nH]c(OCCc3ccc(Oc4ccc(C)c(Cl)c4)cc3)nc2=O)cn1 [E151, 2-[(2-{4-[(3-chloro-4-methylphenyl)oxy]phenyl}ethyl)oxy]-5-{[2-(methyloxy)-5-pyrimidinyl]methyl}-4(1H)-pyrimidinone]
≤ 10 nM | ≤ 100 nM |  | Cn1cc(Cc2c[nH]c(OCCc3ccc(Oc4cc(Cl)cc(C(F)(F)F)c4)cc3)nc2=O)cn1 [E162, 2-{[2-(4-{[3-chloro-5-(trifluoromethyl)phenyl]oxy}phenyl)ethyl]oxy}-5-[(1-methyl-1H-pyrazol-4-yl)methyl]-4(1H)-pyrimidinone]
≤ 10 nM | ≤ 1000 nM |  | COc1ncc(Cc2c[nH]c(OCCc3ccc(Oc4cnc(C(F)(F)F)nc4)cc3)nc2=O)cn1 [E143, 5-{[2-(methyloxy)-5-pyrimidinyl]methyl}-2-{[2-(4-{[2-(trifluoromethyl)-5-pyrimidinyl]oxy}phenyl)ethyl]oxy}-4(1H)-pyrimidinone]
≤ 1 nM | ≤ 100 nM |  | COc1ncc(Cc2cn(C)c(SCc3ccc(Oc4ccc(Cl)c(C(F)(F)F)c4)c(C#N)c3)nc2=O)cn1 [E85, 2-{[4-chloro-3-(trifluoromethyl)phenyl]oxy}-5-{[(1-methyl-5-{[2-(methyloxy)-5-pyrimidinyl]methyl}-4-oxo-1,4-dihydro-2-pyrimidinyl)thio]methyl}benzonitrile]
≤ 1 nM | ≤ 100 nM |  | Cn1cc(Cc2cncnc2)c(=O)nc1SCc1ccc(Oc2cccc(C(F)(F)F)c2)c(C#N)c1 [E97, 5-({[1-methyl-4-oxo-5-(5-pyrimidinylmethyl)-1,4-dihydro-2-pyrimidinyl]thio}methyl)-2-{[3-(trifluoromethyl)phenyl]oxy}benzonitrile]
≤ 10 nM | ≤ 1000 nM |  | COc1ncc(Cc2c[nH]c(NCCc3ccc(Oc4ccc(C(F)(F)F)c(Cl)c4)cc3)nc2=O)cn1 [E206, 2-{2-[4-(3-chloro-4-trifluoromethyl-phenoxy)-phenyl]ethylamino}-5-(2-methoxy-pyrimidin-5-ylmethyl)-1H-pyrimidin-4-one]
≤ 10 nM | ≤ 100 nM | 6.31 nM | O=c1ccc(Cc2c[nH]c(NCCc3ccc(Oc4ccc(Cl)c(C(F)(F)F)c4)cc3)nc2=O)c[nH]1 [E212, 2-{2-[4-(4-Chloro-3-trifluoromethyl-phenoxy)-phenyl]-ethylamino}-5-(6-oxo-1,6-dihydro-pyridin-3-ylmethyl)-1H-pyrimidin-4-one]
≤ 10 nM | ≤ 1000 nM | 3.16 nM | Cc1noc(Cc2c[nH]c(OCCc3ccc(Oc4ccc(Cl)c(C(F)(F)F)c4)cc3)nc2=O)n1 [E133, 2-{[2-(4-{[4-chloro-3-(trifluoromethyl)phenyl]oxy}phenyl)ethyl]oxy}-5-[(3-methyl-1,2,4-oxadiazol-5-yl)methyl]-4(1H)-pyrimidinone]
≤ 1 nM | ≤ 100 nM |  | Cn1cc(Cc2cncnc2)c(=O)nc1OCCc1ccc(Oc2ccc(Cl)c(C(F)(F)F)c2)c(F)c1 [E141, 2-{[2-(4-{[4-chloro-3-(trifluoromethyl)phenyl]oxy}-3-fluorophenyl)ethyl]oxy}-1-methyl-5-(5-pyrimidinylmethyl)-4(1H)-pyrimidinone]
≤ 10 nM | ≤ 100 nM |  | Cc1ncc(Cc2c[nH]c(NCCc3ccc(Oc4ccc(Cl)c(C(F)(F)F)c4)cc3)nc2=O)cn1 [E195, 2-{2-[4-(4-Chloro-3-trifluoromethyl-phenoxy)-phenyl]-ethylamino}-5-(2-methyl-pyrimidin-5-ylmethyl)-1H-pyrimidin-4-one]
≤ 1 nM | ≤ 100 nM |  | COc1ncc(Cc2cn(C)c(SCc3ccc(Oc4ccc(F)c(C(F)(F)F)c4)c(C#N)c3)nc2=O)cn1 [E90, 2-{[4-fluoro-3-(trifluoromethyl)phenyl]oxy}-5-{[(1-methyl-5-{[2-(methyloxy)-5-pyrimidinyl]methyl}-4-oxo-1,4-dihydro-2-pyrimidinyl)thio]methyl}benzonitrile]
≤ 10 nM | ≤ 100 nM |  | O=c1nc(NCCc2ccc(Oc3ccc(C(F)(F)F)cc3)cc2)[nH]cc1Cc1cncnc1 [E204]
≤ 10 nM | ≤ 1000 nM |  | N#Cc1cc(CCNc2nc(=O)c(Cc3cncnc3)c[nH]2)ccc1Oc1ccc(C(F)(F)F)cn1 [E205, 5-[2-(4-oxo-5-pyrimidin-5-ylmethyl-1,4-dihydro-pyrimidin-2-ylamino)-ethyl]-2-(5-trifluoromethyl-pyridin-2-yloxy)benzonitrile]
 | ≤ 1000 nM | 2.51 nM | CCc1cn(CC)c(OCCc2ccc(Oc3ccc(Cl)c(C(F)(F)F)c3)cc2)nc1=O [E130, 2-{[2-(4-{[4-chloro-3-(trifluoromethyl)phenyl]oxy}phenyl)ethyl]oxy}-1,5-diethyl-4(1H)-pyrimidinone]
 | ≤ 1000 nM |  | Cc1ncc(Cc2c[nH]c(NCCc3ccc(Oc4ccc(Cl)c(C(F)(F)F)c4)c(C#N)c3)nc2=O)cn1 [E211, 2-(4-Chloro-3-trifluoromethyl-phenoxy)-5-{2-[5-(2-methyl-pyrimidin-5-ylmethyl)-4-oxo-1,4-dihydro-pyrimidin-2-ylamino]-ethyl}-benzonitrile]
 | ≤ 1000 nM |  | Cc1ncc(Cc2c[nH]c(NCCc3ccc(Oc4ccc(C(F)(F)F)c(Cl)c4)cc3)nc2=O)cn1 [E207, 2-{2-[4-(3-chloro-4-trifluoromethyl-phenoxy)-phenyl]ethylamino}-5-(2-methyl-pyrimidin-5-ylmethyl)-1H-pyrimidin-4-one]
 | ≤ 100 nM |  | COc1ncc(Cc2c[nH]c(OCCc3cc(F)c(Oc4ccc(Cl)c(C(F)(F)F)c4)c(F)c3)nc2=O)cn1 [E176, 2-{[2-(4-{[4-chloro-3-(trifluoromethyl)phenyl]oxy}-3,5-difluorophenyl)ethyl]oxy}-5-{[2-(methyloxy)-5-pyrimidinyl]methyl}-4(1H)-pyrimidinone]
 | ≤ 1000 nM |  | O=c1nc(NCCc2ccc(Oc3cccc(C(F)(F)F)c3)cc2)[nH]cc1Cc1cncnc1 [E185, 5-Pyrimidin-5-ylmethyl-2-{2-[4-(3-trifluoromethyl-phenoxy)-phenyl]-ethylamino}-1H-pyrimidin-4-one]
